Results reported in US20170298056A1, “SMALL MOLECULE INHIBITORS OF HIV-1 ENTRY AND METHODS OF USE THEREOF” (Dana-Farber Cancer Institute, Inc., priority 2014, published 2017).
pIC50: −log10 of the molar value.

Tests used:
[1] = test system: HIV-1JR-FL; assay: Viral infection assay, recombinant HIV-1 pseudotyped with JR-FL Env (wild type and mutants), Cf2Th-CD4/CCR5 cells; format: cell-based; details: for pIC50: Example 8 table, read-out: IC50 (JR-FL); for Therapeutic Index (TI): calculated from IC50 against JR-FL and A-MLV
Text: HIV-1 Env mutants. Mutations were introduced into the plasmid expressing the fulllength HIV-1YU2 or HIV-1JR-FL Envs using the QuikChange II site-directed mutagenesis protocol or the QuikChange multi site-directed mutagenesis kit (Stratagene). The presence of the desired mutations was confirmed by DNA sequencing. All HIV-1 Env residues are numbered based on alignment with the HXBc2 prototypic sequence, according to current convention.
(§1) Production of recombinant HIV-1 expressing luciferase. […] After 48 hours, the supernatant was collected, buffered with 50 mM Hepes pH 7.4 (final concentration) and centrifuged for 5 minutes at 750×g and 4° C. The virus-containing supernatant was used directly or frozen at −80° C.
(§2) Viral infection assay. Each test compound was serially diluted in DMSO in a 96-well B&W isoplate (PerkinElmer, Boston, Mass.) using an HP D300 Digital Dispenser, to a final volume of 450 nl. DMSO was used as a control. Viruses pseudotyped with a specific Env were added to each well and incubated briefly at room temperature. Cf2Th-CD4/CCR5 cells were detached with StemPro Accutase Cell Dissociation Reagent (Invitrogen, cat #A11105-01), washed once, and 5000 cells were added to each well. […] Following incubation, the medium was aspirated and cells were lysed with 30 μl of Passive Lysis Buffer (Promega, cat #E1941). The activity of the firefly luciferase, which was used as a reporter protein in the system, was measured with a Centro LB 960 luminometer (Berthold Technologies, Oak Ridge, Tenn.). One hundred microliters of assay buffer (15 mM MgSO4, 15 mM KH2PO4/K2HPO4 pH 7.8, 1 mM ATP and 1 mM DTT) was injected to each well, followed by a 50 μl injection of 1 mM Dluciferin potassium salt (BD Pharmingen, San Jose, Calif.); luminescence was measured for 2 sec. Infection of PBMC was done as above, but 20,000-40,000 cells/well and viruses concentrated by ultracentrifugation were used. After four hours of incubation with viruses, the cells were centrifuged at 200×g for 6 minutes at 4° C., resuspended in 100 μl RPMI-PBMC medium and incubated at 37° C. for an additional 36-40 hours (total 40-44 hours). Supernatant was removed after centrifugation at 400×g for 5 minutes and cells were processed to detect luciferase activity, as described above.

[2] = test system: amphotropic murine leukemia virus (A-MLV); assay: Viral infection assay, control virus with A-MLV envelope; format: cell-based; details: Example 8 table; read-out: IC50 (A-MLV)
Protocol: as §1, §2
The effect of 18A on viral infection was tested using recombinant HIV-1 pseudotyped with the envelope glycoproteins of different primate immunodeficiency viruses or the amphotropic murine leukemia virus (A-MLV) as a control.

Row | SMILES | pIC50 [1] | pIC50 [2] | Therapeutic Index (TI) [1]
1 | COc1cc(/C=N/NC(=O)Nc2cccc3nsnc23)cc(OC)c1OC [Compound 18A21] | < 3.95 | < 3.95 | 
2 | O=C(N/N=C/c1cccc(O)c1)Nc1cccc2nsnc12 [Compound 18A19] | 5.18 | 4.34 | 7
3 | O=C(N/N=C/c1cccc(F)c1)Nc1cccc2nsnc12 [Compound 18A34] | 4.99 | 4.16 | 6.8
4 | O=C(N/N=C/c1c(O)cc(O)cc1O)Nc1cccc2nsnc12 [Compound 18A17] | 4.61 | 4.19 | 2.6
5 | COc1ccc(/C=N/NC(=O)Nc2cccc3nsnc23)cc1OC [Compound 18A5] | 5.30 | 4.59 | 5.1
6 | COc1ccc(/C=N/NC(=O)Nc2cccc3nsnc23)c(Cl)c1OC [Compound 18A30] | < 3.95 | < 3.95 | 
7 | COc1ccc(/C=N/NC(=O)Nc2cccc3nsnc23)cc1 [Compound 18A1] | < 3.95 | < 3.95 | 
8 | O=C(N/N=C/c1ccc(O)c(Br)c1)Nc1cccc2nsnc12 [Compound 18A48] | < 3.95 | < 3.95 | 
9 | O=C(N/N=C/c1ccc(O)c(Cl)c1)Nc1cccc2nsnc12 [Compound 18A32] | 5.40 | 4.72 | 
10 | O=C(N/N=C/c1ccccc1O)Nc1cccc2nsnc12 [Compound 18A10] | ~6.15 | > 6.30 | <1
11 | O=C(N/N=C/c1ccccc1)Nc1cccc2nsnc12 [Compound 18A13] | 4.77 | 4.12 | 4.4
12 | O=C(N/N=C/c1ccc(O)c(O)c1)Nc1cccc2nsnc12 [Compound 18A20] | 5.28 | 4.25 | 10.8
13 | O=C(N/N=C/c1cccc(O)c1O)Nc1cccc2nsnc12 [Compound 18A36] | 5.21 | 4.30 | 8.1
14 | COc1cc(/C=N/NC(=O)Nc2cccc3nsnc23)ccc1O [Compound 18A18] | 5.82 | 6.10 | 0.6
15 | COc1ccc(/C=N/NC(=O)Nc2cccc3nsnc23)c(OC)c1 [Compound 18A2] | 4.22 | 4.00 | 1.7
16 | COc1ccc(/C=N/NC(=O)Nc2cccc3nsnc23)cc1O [Compound 18A25] | 5.74 | 4.94 | 6.4
17 | O=C(N/N=C/c1ccc(O)c([N+](=O)[O-])c1)Nc1cccc2nsnc12 [Compound 18A40] | 5.12 | < 3.95 | >14.7
18 | O=C(N/N=C/c1ccc(Cn2cccn2)cc1)Nc1cccc2nsnc12 [Compound 18A52] | 5.47 | 4.43 | 11
19 | Cc1cc(/C=N/NC(=O)Nc2cccc3nsnc23)cc(C)c1O [Compound 18A16] | 6.70 | 7.00 | 0.5
20 | COc1ccc(/C=N/NC(=O)Nc2cccc3nsnc23)c(O)c1 [Compound 18A58] | < 3.95 | < 3.95 | 
21 | O=C(N/N=C/c1cc(O)cc(O)c1)Nc1cccc2nsnc12 [Compound 18A49] | 4.89 | < 3.95 | >8.6
